From the NIST ThermoML archive (doi:10.1016/j.fluid.2015.09.010)

Assay: xn = mol fraction of the nth substance listed
Conditions: Gas, single sinker densimeter

F/C=C/C(F)(F)F [trans-1,3,3,3-tetrafluoropropene] + CCC
Conditions	mass density [kg/m3]
258.15 K, 100.61 kPa, x1 = 0.3426	3.2856
258.15 K, 196.38 kPa, x1 = 0.168	5.3883
258.15 K, 283.13 kPa, x1 = 0.168	7.9775
258.16 K, 100.07 kPa, x1 = 0.168	2.6751
258.16 K, 161.36 kPa, x1 = 0.3426	5.3604
258.18 K, 242.52 kPa, x1 = 0.3426	8.2589
263.19 K, 101.37 kPa, x1 = 0.3426	3.2412
263.19 K, 283.01 kPa, x1 = 0.3426	9.5248
263.2 K, 100.13 kPa, x1 = 0.168	2.6195
263.2 K, 200.66 kPa, x1 = 0.3426	6.5891
263.2 K, 209.39 kPa, x1 = 0.168	5.6353
263.2 K, 326.36 kPa, x1 = 0.168	9.0877
263.21 K, 228.28 kPa, x1 = 0.5076	8.8723
263.22 K, 100.69 kPa, x1 = 0.5076	3.7656
263.22 K, 168.02 kPa, x1 = 0.5076	6.4065
268.16 K, 332.61 kPa, x1 = 0.3431	11.1032
268.16 K, 332.62 kPa, x1 = 0.3431	11.1044
268.17 K, 101.25 kPa, x1 = 0.168	2.5987
268.17 K, 101.55 kPa, x1 = 0.679	4.2921
268.17 K, 164.37 kPa, x1 = 0.679	7.0737
268.17 K, 201.77 kPa, x1 = 0.3431	6.4883
268.17 K, 227.73 kPa, x1 = 0.679	9.9973
268.18 K, 202.12 kPa, x1 = 0.5076	7.6182
268.18 K, 248.05 kPa, x1 = 0.168	6.5968
268.18 K, 396.76 kPa, x1 = 0.168	11.0064
268.19 K, 101.5 kPa, x1 = 0.3431	3.1825
268.19 K, 104.3 kPa, x1 = 0.5076	3.83
268.2 K, 297.38 kPa, x1 = 0.5076	11.5325
273.16 K, 335.7 kPa, x1 = 0.168	8.9351
273.16 K, 451.06 kPa, x1 = 0.168	12.3973
273.17 K, 100.67 kPa, x1 = 0.3426	3.0918
273.17 K, 101.01 kPa, x1 = 0.168	2.541
273.17 K, 239.94 kPa, x1 = 0.3426	7.62
273.18 K, 102.27 kPa, x1 = 0.5076	3.6758
273.18 K, 200.45 kPa, x1 = 0.5076	7.3826
273.18 K, 209.57 kPa, x1 = 0.168	5.4023
273.18 K, 354.79 kPa, x1 = 0.5076	13.6621
273.18 K, 373.24 kPa, x1 = 0.3426	12.2939
273.18 K, 413.03 kPa, x1 = 0.3426	13.7671
273.2 K, 100.65 kPa, x1 = 0.679	4.1755
273.2 K, 206.18 kPa, x1 = 0.679	8.804
273.21 K, 292.51 kPa, x1 = 0.679	12.8266
278.16 K, 417.17 kPa, x1 = 0.3431	13.5784
278.17 K, 309.55 kPa, x1 = 0.3431	9.7917
278.18 K, 526.01 kPa, x1 = 0.168	14.3898
278.19 K, 99.65 kPa, x1 = 0.5076	3.5099
278.19 K, 100.62 kPa, x1 = 0.3431	3.0318
278.19 K, 101.41 kPa, x1 = 0.168	2.5025
278.19 K, 191.78 kPa, x1 = 0.5076	6.9037
278.19 K, 198.9 kPa, x1 = 0.3431	6.1248
278.19 K, 207 kPa, x1 = 0.168	5.2225
278.19 K, 297.09 kPa, x1 = 0.5076	10.9954
278.19 K, 309.62 kPa, x1 = 0.168	7.9983
278.19 K, 399.16 kPa, x1 = 0.5076	15.2118
278.19 K, 401.11 kPa, x1 = 0.168	10.6025
278.2 K, 223.87 kPa, x1 = 0.679	9.3941
278.21 K, 100.47 kPa, x1 = 0.679	4.0836
278.21 K, 100.48 kPa, x1 = 0.8949	4.7788
278.21 K, 170.26 kPa, x1 = 0.8949	8.2642
278.21 K, 223.89 kPa, x1 = 0.679	9.3939
278.21 K, 278.18 kPa, x1 = 0.8949	13.9927
278.22 K, 349.38 kPa, x1 = 0.679	15.2188
283.16 K, 205.37 kPa, x1 = 0.3426	6.1995
283.16 K, 338.25 kPa, x1 = 0.3426	10.53
283.17 K, 101.18 kPa, x1 = 0.3426	2.9879
283.17 K, 449.59 kPa, x1 = 0.3426	14.3925
283.18 K, 580.09 kPa, x1 = 0.3426	19.2575
283.19 K, 100.44 kPa, x1 = 0.168	2.4312
283.19 K, 198.03 kPa, x1 = 0.168	4.884
283.19 K, 220.83 kPa, x1 = 0.5076	7.8406
283.19 K, 312.57 kPa, x1 = 0.168	7.9025
283.19 K, 369.65 kPa, x1 = 0.5076	13.6268
283.19 K, 411.95 kPa, x1 = 0.168	10.6601
283.19 K, 498.32 kPa, x1 = 0.5076	19.0511
283.19 K, 515.38 kPa, x1 = 0.168	13.6875
283.19 K, 612.31 kPa, x1 = 0.168	16.7013
283.2 K, 100.73 kPa, x1 = 0.679	4.0148
283.2 K, 101.73 kPa, x1 = 0.5076	3.5184
283.2 K, 202.42 kPa, x1 = 0.679	8.2655
283.2 K, 307.97 kPa, x1 = 0.679	12.9389
283.21 K, 409.61 kPa, x1 = 0.679	17.7339
283.23 K, 209.78 kPa, x1 = 0.8949	10.0762
283.23 K, 328.84 kPa, x1 = 0.8949	16.4078
283.24 K, 102.25 kPa, x1 = 0.8949	4.7652
288.24 K, 101.08 kPa, x1 = 0.3426	2.9277
288.24 K, 229.6 kPa, x1 = 0.3426	6.8193
288.25 K, 344.87 kPa, x1 = 0.3426	10.4999
288.25 K, 452.7 kPa, x1 = 0.3426	14.1363
288.25 K, 583.57 kPa, x1 = 0.3426	18.8469
288.25 K, 689.73 kPa, x1 = 0.3426	22.9563
288.26 K, 595.72 kPa, x1 = 0.168	15.7412
288.26 K, 711.04 kPa, x1 = 0.168	19.385
288.27 K, 213.38 kPa, x1 = 0.168	5.1751
288.27 K, 334.82 kPa, x1 = 0.168	8.3244
288.27 K, 445.46 kPa, x1 = 0.168	11.3478
288.28 K, 101.56 kPa, x1 = 0.168	2.4124
288.29 K, 101.07 kPa, x1 = 0.5076	3.4268
288.29 K, 220.99 kPa, x1 = 0.5076	7.6809
288.29 K, 444.05 kPa, x1 = 0.5076	16.2865
288.29 K, 578.73 kPa, x1 = 0.5076	22.0366
288.3 K, 101.4 kPa, x1 = 0.679	3.9663
288.3 K, 227.2 kPa, x1 = 0.679	9.1436
288.3 K, 333.95 kPa, x1 = 0.5076	11.9154
288.31 K, 348.56 kPa, x1 = 0.679	14.4714
288.31 K, 484.09 kPa, x1 = 0.679	20.8941
288.32 K, 385.31 kPa, x1 = 0.8949	19.104
288.34 K, 101.12 kPa, x1 = 0.8949	4.6234
288.34 K, 236.83 kPa, x1 = 0.8949	11.2187
293.25 K, 588.13 kPa, x1 = 0.3426	18.534
293.25 K, 709.61 kPa, x1 = 0.3426	23.0845
293.26 K, 208.73 kPa, x1 = 0.3426	6.0545
293.26 K, 452.62 kPa, x1 = 0.3426	13.8135
293.27 K, 101.3 kPa, x1 = 0.3426	2.8816
293.27 K, 329.2 kPa, x1 = 0.3426	9.782
293.28 K, 208.37 kPa, x1 = 0.5076	7.0836
293.28 K, 290.55 kPa, x1 = 0.168	7.0037
293.28 K, 407.44 kPa, x1 = 0.168	10.0558
293.29 K, 98.9 kPa, x1 = 0.5076	3.2914
293.29 K, 100.13 kPa, x1 = 0.168	2.3324
293.29 K, 198.29 kPa, x1 = 0.168	4.6983
293.29 K, 317.13 kPa, x1 = 0.5076	11.031
293.29 K, 429.96 kPa, x1 = 0.5076	15.3484
293.29 K, 515.52 kPa, x1 = 0.168	13.0247
293.29 K, 530.45 kPa, x1 = 0.5076	19.4174
293.29 K, 612.66 kPa, x1 = 0.168	15.8319
293.29 K, 715.58 kPa, x1 = 0.168	18.9724
293.29 K, 825.52 kPa, x1 = 0.168	22.5539
293.3 K, 210.11 kPa, x1 = 0.679	8.2494
293.3 K, 641.29 kPa, x1 = 0.5076	24.1912
293.31 K, 101.19 kPa, x1 = 0.679	3.8833
293.31 K, 324.6 kPa, x1 = 0.679	13.0914
293.32 K, 432.86 kPa, x1 = 0.679	17.9448
293.32 K, 546.41 kPa, x1 = 0.679	23.3906
293.34 K, 454.67 kPa, x1 = 0.8949	22.4737
293.35 K, 100.25 kPa, x1 = 0.8949	4.4951
293.35 K, 226.08 kPa, x1 = 0.8949	10.452
293.35 K, 345.6 kPa, x1 = 0.8949	16.5159
